Reference: patent US20250082774A1, “PEPTIDE LINKERS COMPRISING TWO OR MORE PAYLOADS” (ARARIS BIOTECH AG, priority 2022, published 2025)
Entries after “also recorded” stand apart in the source; their conditions may differ.

Experiments:
[1] = system: SUM190PT (Nectin-4-positive, solid tumor) xenograft; test: Tumor growth inhibition in SUM190PT xenograft model; format: in vivo, CB17 SCID mice; conditions: single i.v. injection
Method: For SUM190PT xenografts, 2×10^6 cells were injected into the mammary fat pad of CB17 SCID mice (Janvier). Tumor dimensions and body weights were recorded three times weekly. The tumor volume was calculated according to the formula volume=(width)^2×length×0.5. When the average tumor size reached about 200 mm^3, mice were allocated using a non-random stratification protocol into the treatment groups comprising six mice each. ADCs were intravenously injected once on the day of randomization. The ADCs according to this invention were produced in-house as described in Example 2. Enfortumab vedotin (DAR 4) was commercially available, bought from a pharmacy. ARA-04-MMAE-PABC-AA-C2-RKAA-PABC-MMAE (DAR 4.0) and ARA-04-RKAA-PABC-(MMAE)2 (DAR 3.8) were injected at ADC doses corresponding to 10 μg payload dose per kg mouse weight (10 μg/kg). Enfortumab vedotin (DAR 4) was injected 15 μg payload dose per kg mouse weight (15 μg/kg). Mice in the control group were injected with PBS. All mouse experiments were performed in accordance with Swiss guidelines and were approved by the Veterinarian Office of Zurich, Switzerland.

RNA-polymerase II = RNA-polymerase II (Homo sapiens, UniProt P24928); conditions: read-out: KD of the complex between amanitin and RNA-polymerase II; cited from earlier work
various tumor cell lines = conditions: cited from earlier work
[2] = 10 μg/kg payload dose, six mice per group

With “ARA-04-RKAA-PABC-(MMAE)2: anti-Nectin-4 ADC (DAR 3.8), same antibody and payload as Enfortumab vedotin, payloads only at C-terminal end of peptide linker” the “anti-tumor response (in words)” value [1, 2] was “tumor control for approximately 20 days in 6/6 mice followed by re-growth of tumors; also recorded: active in vivo”.

In the case of amanitin, the Kd (RNA-polymerase II) is listed as 3 nM.

For `CC[C@H](C)[C@H](NC(=O)[C@H]1CCCCN1C)C(=O)N(COC(=O)CC(C)C)[C@H](C[C@@H](OC(C)=O)c1nc(C(=O)N[C@@H](Cc2ccc(O)cc2)C[C@H](C)C(=O)O)cs1)C(C)C` [Tubulysin A], the “IC50, cytostatic effects” value (various tumor cell lines) is given as “picomolar range”.

In the case of “ARA-04-MMAE-PABC-AA-C2-RKAA-PABC-MMAE: anti-Nectin-4 ADC (DAR 4.0), same antibody and payload as Enfortumab vedotin, payloads at N- and C-terminal end of peptide linker”, the “anti-tumor response (in words)” value [1, 2] is reported as “active in vivo; also recorded: superior efficacy providing survival advantage” and the “mice with complete long-lasting responses” value [1, 2] is reported as 4/6.

For Enfortumab vedotin [reference compound], the “animals with marked regrowth after day 40” value ([1]; 15 μg/kg payload dose) was 6/6 and the “anti-tumor response (in words)” value ([1]; 15 μg/kg payload dose, six mice per group) was “transient tumor regression with no tumor-free individuals at 20 days after treatment”.
